Data taken from ChEMBL document CHEMBL1142309, “The discovery of GSK221149A: a potent and selective oxytocin antagonist” (Bioorg Med Chem Lett, 2008).
≈ marks a conversion by molar mass, not a printed value. Where a SMILES comes first, the peptide text is derived from it. Bridges are numbered along the chain shown (N, C = ends). [ ]: non-standard residue; d: D form. Orn = NCCC[C@H](N)C(=O)O; Mpa = O=C(O)CCS

What was measured:
[1] = molecular target: T1, Oxytocin receptor (Homo sapiens, UniProt P30559); assay: Binding affinity to human oxytocin receptor
T1 sequence (P30559 whole entry): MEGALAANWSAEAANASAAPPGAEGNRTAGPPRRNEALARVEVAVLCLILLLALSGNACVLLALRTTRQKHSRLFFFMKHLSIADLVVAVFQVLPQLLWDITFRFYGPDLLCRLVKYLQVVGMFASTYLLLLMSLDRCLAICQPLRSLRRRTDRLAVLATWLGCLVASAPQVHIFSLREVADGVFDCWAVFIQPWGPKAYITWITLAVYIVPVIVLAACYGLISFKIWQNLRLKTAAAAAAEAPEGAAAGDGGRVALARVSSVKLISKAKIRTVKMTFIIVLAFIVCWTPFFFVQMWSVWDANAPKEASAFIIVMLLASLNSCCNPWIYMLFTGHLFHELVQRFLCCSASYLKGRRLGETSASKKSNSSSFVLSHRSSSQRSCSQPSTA

[2] = Aqueous solubility of the compound; format: physicochemical; settings: buffer
[3] = Binding affinity to human serum albumin; format: ADME, cell-free; settings: read-out: PB (converted)
[4] = Distribution coefficient, log D of the compound; format: physicochemical; settings: chromatographic
[5] = molecular target: Cytochrome P450 3A4 (Homo sapiens, UniProt P08684); assay: Inhibition of CYP3A4; format: ADME
Sequence of Cytochrome P450 3A4 (P08684 whole entry): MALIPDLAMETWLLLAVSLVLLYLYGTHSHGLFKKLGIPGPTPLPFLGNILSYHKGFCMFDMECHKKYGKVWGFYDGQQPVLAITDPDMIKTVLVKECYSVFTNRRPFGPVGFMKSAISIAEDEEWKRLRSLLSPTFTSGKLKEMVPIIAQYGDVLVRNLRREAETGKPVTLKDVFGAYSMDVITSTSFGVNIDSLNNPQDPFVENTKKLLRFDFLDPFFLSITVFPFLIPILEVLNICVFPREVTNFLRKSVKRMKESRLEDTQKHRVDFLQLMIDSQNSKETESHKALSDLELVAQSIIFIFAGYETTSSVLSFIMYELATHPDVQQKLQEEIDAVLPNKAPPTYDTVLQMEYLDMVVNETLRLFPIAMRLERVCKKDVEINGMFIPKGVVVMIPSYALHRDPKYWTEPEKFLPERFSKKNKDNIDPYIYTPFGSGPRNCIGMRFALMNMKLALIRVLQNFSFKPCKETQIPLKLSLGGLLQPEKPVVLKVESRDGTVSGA

[6] = AUC in rat at 5 mg/kg, po in DMSO/PEG400 formulation; format: ADME, organism-based; parameters: dose 5 mg/kg, route oral; settings: plasma
[7] = Selectivity for human oxytocin receptor over vasopressin V1a receptor
[8] = molecular target: Vasopressin V2 receptor (Homo sapiens, UniProt P30518); assay: Binding affinity to human vasopressin V2 receptor
Sequence of Vasopressin V2 receptor (P30518 whole entry): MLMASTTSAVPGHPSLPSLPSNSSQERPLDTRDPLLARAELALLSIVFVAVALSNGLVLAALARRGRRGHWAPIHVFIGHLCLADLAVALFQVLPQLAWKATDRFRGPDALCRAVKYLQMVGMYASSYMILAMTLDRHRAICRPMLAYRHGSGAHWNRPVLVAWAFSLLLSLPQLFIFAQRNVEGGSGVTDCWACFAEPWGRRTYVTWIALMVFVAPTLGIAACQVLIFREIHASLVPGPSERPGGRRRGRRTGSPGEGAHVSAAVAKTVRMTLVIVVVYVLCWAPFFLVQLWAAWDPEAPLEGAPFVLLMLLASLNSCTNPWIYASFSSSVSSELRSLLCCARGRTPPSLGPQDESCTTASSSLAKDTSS

[9] = molecular target: Oxytocin receptor (Rattus norvegicus) (UniProt P70536); assay: Binding affinity to recombinant oxytocin receptor
Sequence of Oxytocin receptor (Rattus norvegicus) (P70536 whole entry, looked up): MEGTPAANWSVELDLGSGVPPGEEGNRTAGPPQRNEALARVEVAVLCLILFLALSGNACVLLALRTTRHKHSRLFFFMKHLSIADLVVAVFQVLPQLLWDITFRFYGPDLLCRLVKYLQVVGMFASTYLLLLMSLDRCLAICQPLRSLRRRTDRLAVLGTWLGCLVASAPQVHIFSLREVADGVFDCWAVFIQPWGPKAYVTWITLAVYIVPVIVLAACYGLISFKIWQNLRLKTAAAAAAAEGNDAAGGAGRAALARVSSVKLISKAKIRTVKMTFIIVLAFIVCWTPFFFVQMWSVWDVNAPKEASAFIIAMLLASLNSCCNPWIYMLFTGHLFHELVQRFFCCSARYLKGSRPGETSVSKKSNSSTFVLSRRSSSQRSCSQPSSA

[10] = molecular target: Vasopressin V1a receptor (Homo sapiens, UniProt P37288); assay: Binding affinity to human vasopressin V1a receptor
Sequence of Vasopressin V1a receptor (P37288 whole entry): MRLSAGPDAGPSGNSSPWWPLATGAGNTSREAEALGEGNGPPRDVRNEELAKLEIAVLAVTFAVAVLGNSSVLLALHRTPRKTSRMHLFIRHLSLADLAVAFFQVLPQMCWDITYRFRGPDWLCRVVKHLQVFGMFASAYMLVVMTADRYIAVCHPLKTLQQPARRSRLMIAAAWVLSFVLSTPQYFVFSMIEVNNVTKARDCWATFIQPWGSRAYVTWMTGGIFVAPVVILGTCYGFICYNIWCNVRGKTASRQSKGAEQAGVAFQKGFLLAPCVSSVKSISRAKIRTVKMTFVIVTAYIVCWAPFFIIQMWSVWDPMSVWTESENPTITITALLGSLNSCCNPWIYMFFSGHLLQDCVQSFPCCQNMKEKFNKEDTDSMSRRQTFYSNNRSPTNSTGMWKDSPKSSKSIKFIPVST

[11] = molecular target: T2, Vasopressin V1b receptor (Homo sapiens, UniProt P47901); assay: Binding affinity to human vasopressin V1b receptor
T2 sequence (P47901 whole entry): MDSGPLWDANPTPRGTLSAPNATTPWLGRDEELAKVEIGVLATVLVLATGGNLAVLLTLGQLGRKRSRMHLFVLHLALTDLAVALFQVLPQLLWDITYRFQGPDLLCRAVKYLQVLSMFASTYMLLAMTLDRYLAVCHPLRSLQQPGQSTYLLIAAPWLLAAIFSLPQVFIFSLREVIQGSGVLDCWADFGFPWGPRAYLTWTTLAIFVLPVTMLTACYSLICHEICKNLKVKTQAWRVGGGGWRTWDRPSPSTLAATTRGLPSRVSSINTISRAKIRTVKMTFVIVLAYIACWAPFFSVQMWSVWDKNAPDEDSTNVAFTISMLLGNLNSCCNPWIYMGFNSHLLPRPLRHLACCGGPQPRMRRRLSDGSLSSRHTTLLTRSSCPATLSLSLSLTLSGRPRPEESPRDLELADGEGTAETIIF

[12] = Half life in rat at 2 mg/kg, iv or 5 mg/kg, po; format: ADME, organism-based; settings: in vivo
[13] = Clearance in rat at 2 mg/kg, iv or 5 mg/kg, po; format: ADME, organism-based; settings: in vivo
[14] = AUC in rat at 5 mg/kg, po in HPMC/Tween formulation; format: ADME, organism-based; parameters: dose 5 mg/kg, route oral; settings: plasma
[15] = Bioavailability in rat at 2 mg/kg, iv or 5 mg/kg, po; format: ADME, organism-based; settings: in vivo
[16] = tested on: Rattus norvegicus; assay: Decrease in oxytocin-induced uterine contractions in iv dosed non-pregnant Sprague-Dawley rat; format: functional, organism-based

Row | Ki ([1]; read-out: Log Ki (converted)) [nM] | solubility [2] [µg/mL] | fraction unbound [3] | IC50 [5] [nM] | SMILES | other results
1 | 0.794 |  |  |  | CC(C)C[C@@H]1C(=O)N[C@H](C2Cc3ccccc3C2)C(=O)N1[C@@H](C(=O)NC(C)C)c1ccc(Br)o1 | 
2 | 0.1 | < 1 | 0.03 | 3000 | CC(C)C[C@@H]1C(=O)N[C@H](C2Cc3ccccc3C2)C(=O)N1[C@@H](C(=O)NC(C)C)c1ccc(C(F)(F)F)o1 | logD [4]: 3.6
3 | 6.31 |  |  |  | CC(C)C[C@@H]1C(=O)N[C@H](C2Cc3ccccc3C2)C(=O)N1[C@@H](C(=O)NC(C)C)c1cccs1 | 
4 | 1.26 | > 240 | 0.37 | > 100000 | Cc1nc([C@H](C(=O)NC(C)C)N2C(=O)[C@@H](C3Cc4ccccc4C3)NC(=O)[C@H]2CC(C)C)co1 | AUC [6]: 225 ng·h/mL; Selectivity ratio [7]: > 10; logD [4]: 2.5
5 | 12.6 |  |  |  | CC(C)C[C@@H]1C(=O)N[C@H](C2Cc3ccccc3C2)C(=O)N1[C@@H](C(=O)NC(C)(C)C)c1ccoc1 | 
6 |  |  |  |  | CCOc1ccc(C[C@H]2NC(=O)CCSSC[C@@H](C(=O)N3CCC[C@H]3C(=O)N[C@@H](CCCN)C(=O)NCC(N)=O)NC(=O)[C@H](CC(N)=O)NC(=O)[C@H]([C@@H](C)O)NC(=O)[C@H]([C@@H](C)CC)NC2=O)cc1 [ATOSIBAN] ([Mpa][dY](Et)ITNCP[Orn]G-NH2; disulfide 1-6) | Ki [8]: 330 nM; Ki [9]: 32 nM; Ki [10]: 0.15 nM; Ki ([1]; read-out: Ki): 11 nM; Ki [11]: 44 nM
7 | 1 |  |  |  | CC(C)C[C@@H]1C(=O)N[C@H](C2Cc3ccccc3C2)C(=O)N1[C@@H](C(=O)NC(C)C)c1cc(Br)cs1 | 
8 | 1 | 34 (≈ 73 µM) | 0.04 | 7000 | Cc1ccc([C@H](C(=O)NC(C)C)N2C(=O)[C@@H](C3Cc4ccccc4C3)NC(=O)[C@H]2CC(C)C)o1 | logD [4]: 3.3
9 | 6.31 |  |  |  | CC(C)C[C@@H]1C(=O)N[C@H](C2Cc3ccccc3C2)C(=O)N1[C@@H](C(=O)NC(C)C)c1ccco1 | 
10 | 0.158 |  |  |  | CC(C)C[C@@H]1C(=O)N[C@H](C2Cc3ccccc3C2)C(=O)N1[C@@H](C(=O)NC(C)C)c1coc(C(F)(F)F)n1 | 
11 | 0.398 |  |  |  | Cc1nc([C@H](C(=O)N(C)C)N2C(=O)[C@@H](C3Cc4ccccc4C3)NC(=O)[C@H]2CC(C)C)cs1 | 
12 | 0.794 |  |  |  | CC(C)C[C@@H]1C(=O)N[C@H](C2Cc3ccccc3C2)C(=O)N1[C@@H](C(=O)N(C)C)c1coc(C2CC2)n1 | 
13 | 2 | > 220 | > 0.2 | > 100000 | Cc1nc([C@H](C(=O)N2CCOCC2)N2C(=O)[C@@H](C3Cc4ccccc4C3)NC(=O)[C@H]2CC(C)C)co1 | AUC [6]: 3630 ng·h/mL; half-life [12]: 1.1 h; Selectivity ratio [7]: > 10; clearance [13]: 23 mL/min/kg; AUC [14]: 1190 ng·h/mL; bioavailability [15]: 33%
14 |  | > 220 | > 0.2 | > 100000 | CC[C@H](C)[C@@H]1C(=O)N[C@H](C2Cc3ccccc3C2)C(=O)N1[C@@H](C(=O)N1CCOCC1)c1coc(C)n1 [RETOSIBAN] | AUC [6]: 5470 ng·h/mL; Ki [8]: 950 nM; half-life [12]: 1.4 h; clearance [13]: 19 mL/min/kg; Ki [10]: > 12000 nM; AUC [14]: 1800 ng·h/mL; bioavailability [15]: 100%; Ki [11]: > 10000 nM; IC50 [16]: 180 nM; ED50 ([16]; iv, read-out: ID50 (the source's name)): 0.27 mg/kg
15 | 1.26 | > 220 | > 0.2 | > 100000 | Cc1nc([C@H](C(=O)N(C)CCO)N2C(=O)[C@@H](C3Cc4ccccc4C3)NC(=O)[C@H]2CC(C)C)co1 | AUC [6]: 218 ng·h/mL; Selectivity ratio [7]: > 10
16 | 3.16 |  |  |  | Cc1nc([C@H](C(=O)N(C)C)N2C(=O)[C@@H](C3Cc4ccccc4C3)NC(=O)[C@H]2CC(C)C)c(C)o1 | 
17 |  | < 1 | 0.07 | 4000 | CC(C)C[C@@H]1C(=O)N[C@H](C2Cc3ccccc3C2)C(=O)N1[C@@H](C(=O)NC(C)C)c1ccc(F)cc1F | logD [4]: 3.4
18 | 2.51 |  |  |  | CC(C)C[C@@H]1C(=O)N[C@H](C2Cc3ccccc3C2)C(=O)N1[C@@H](C(=O)NC(C)C)c1ccc(-c2ccccn2)s1 | 
19 |  | > 220 | > 0.2 | > 100000 | CC[C@@H](C)[C@@H]1C(=O)N[C@H](C2Cc3ccccc3C2)C(=O)N1[C@@H](C(=O)N1CCOCC1)c1coc(C)n1 | AUC [6]: 4200 ng·h/mL; half-life [12]: 1.3 h; clearance [13]: 14 mL/min/kg; bioavailability [15]: 69%
20 | 2 | < 1 | 0.01 | 1000 | CC(C)C[C@@H]1C(=O)N[C@H](C2Cc3ccccc3C2)C(=O)N1[C@@H](C(=O)NC(C)C)c1ccc(Br)s1 | logD [4]: 3.7
21 | 1.26 |  |  |  | Cc1cc([C@H](C(=O)NC(C)C)N2C(=O)[C@@H](C3Cc4ccccc4C3)NC(=O)[C@H]2CC(C)C)oc1C | 
22 | 39.8 |  |  |  | CNC(=O)c1ccc([C@H](C(=O)NC(C)C)N2C(=O)[C@@H](C3Cc4ccccc4C3)NC(=O)[C@H]2CC(C)C)o1 | 
23 | 1.58 | > 220 | > 0.2 | > 100000 | Cc1nc([C@H](C(=O)N2CCC2)N2C(=O)[C@@H](C3Cc4ccccc4C3)NC(=O)[C@H]2CC(C)C)co1 | AUC [6]: 1070 ng·h/mL; half-life [12]: 1.4 h; Selectivity ratio [7]: > 10; clearance [13]: 35 mL/min/kg; bioavailability [15]: 45%
